Key:
mice (ICR) [1] = assay: Acute toxicity test in mice (oral administration); settings: mouse, in vivo, po, 2000 mg/kg
Experimental: (§1) In order to determine the acute toxicity of the compound of the present invention when the compound is orally administered, mice (ICR, 24˜26 g) were fasted for 16 hours. One group consists of 10 males and 10 females. The first group is the control group and physiological saline was administered per oral to this group. The compounds of Examples 2 and 4 were orally administered in a dosage of 2000 mg/kg, the maximum dosage in acute toxicity test, to each test group. […] On the last day of the test, 14th day from the start, the mice were subjected to an autopsy in order to examine changes of the internal organs. […] This means that the compounds of the present invention including those of Examples 2 and 4 are safe in the aspect of acute toxicity.

[2] = Acute toxicity test in mice (oral administration); settings: both sexes, ICR, mouse, in vivo, 2000 mg/kg; mice, oral
Experimental: as §1

[3] = system: encephalophyma cell of A172; assay: Growth inhibition of A172 (MTT); type: cell-based; settings: for IC50: Homo sapiens, A 172, read-out: IC50
Experimental: (§2) In the present experiment, the inhibitory activity of the compound of formula (1) was determined against the growth of K562 cancer cell. First, the cells were allowed to stand in RPMI (Roswell Park Memorial Institute)-1640 medium containing 10% (v/v) fetal bovine serum in an incubator of 37° C. and 5% by volume of CO2. The cancer cells (1000 cells) were transferred to a 96-well plate, and the test compound was diluted. The plate was allowed to stand under the above mentioned conditions for 2 days. After this treatment, to the cells was added 0.2% MTT (3-[4,5-dimethylthiazol-2-yl]-2,5-diphenyltetrazolium bromide) solution, and the resulting mixture was allowed to stand under the constant temperature-condition for 4 hours. The supernatant was removed to leave the resulting crystal. DMSO was added to dissolve the crystal, and the absorbance of the solution was measured at 540 nm. IC50 value was calculated using a computer system according to the following formula: […]
(§3) The test was performed according to the same procedure as Experiment 1.

[4] = system: oral epithelial cancer cell (KB); assay: Growth inhibition of KB (MTT); type: cell-based; design: IC50 as fraction of that of Imatinib mesylate: unit not given beside the values; settings: for IC50: Homo sapiens
Experimental: as §2, §3

[5] = system: prostatic cancer cell (DU-145); assay: Growth inhibition of DU-145 (MTT); type: cell-based; design: IC50 as fraction of that of Imatinib mesylate: unit not given beside the values; settings: for IC50: Homo sapiens
Experimental: as §2, §3

[6] = system: U937 cancer cell (monocyte like leukemia cell line); assay: Growth inhibition of U937 cancer cell (MTT); type: cell-based; settings: for IC50: Homo sapiens, U-937
Experimental: as §2
In the present experiment, the inhibitory activity of the compound of formula (1) was determined against the growth of U937 cancer cell. The test was performed according to the same procedure as Experiment 1.

mice (ICR) [7] = assay: Acute toxicity test in mice (intravenous administration); type: in vivo
Experimental: (§4) In this test, the acute toxicity of the compound of the present invention when the compound is intravenously administered was determined on mice (ICR, 24˜26 g). One group consists of 10 males and 10 females. The first group is the control group and physiological saline was intravenously administered to this group. The compound of Example 10 was intravenously administered in dosages of 25, 50, 75, and 100 mg/kg, respectively, to each test group. […] On the last day of the test, 14th day from the start, the mice were subjected to an autopsy in order to examine changes of the internal organs. […] No mouse died in these test groups. Further, in the test group of 100 mg/kg dosage, 8 mice among 10 died within 10 minutes after the administration.

[8] = as above; type: in vivo; settings: both sexes, ICR, mouse, in vivo, iv; mice, intravenously administered
Experimental: as §4

sarcoma-180 = assay: Anti-cancer activity in sarcoma animal model; type: in vivo, ICR mouse; settings: day 30; for Average tumor weight (Mean ± S.E.): three times at intervals of 4 days, in g (unit assumed)
Experimental: The anti-cancer activity against sarcoma-180 was determined using ICR mouse (22˜25 g, male). Sarcoma-180 (0.1 ml; 5×10^7 cells/ml) was hypodermically implanted to the left inguinal area of the mouse. After 72 hours from the hypodermic implantation, physiological saline was intravenously administered to the control group. For the test groups, the compound of Example 10 dissolved in physiological saline in a concentration of 25 or 50 mg/kg was intravenously administered three times at intervals of 4 days. On the 30th day from the implantation of the tumor cell, the mice were sacrificed to take out the induced solid tumors. The solid tumors were weighed, the average weight of the tumors was obtained, and the percent inhibition ratio was calculated according to the following formula:
Inhibition ratio (I.R.) (%)=[(Cw−Tw)/Cw]×100
I.R. represents the percent inhibition ratio,
Cw represents the average weight of tumor of the control group; and
Tw represents the average weight of tumor of the test group.

Structure (SMILES): CS(=O)(=O)O.Cc1ccc(NC(=O)c2ccc(CNN3CCN(C)CC3)cc2)cc1Nc1nccc(-c2cccnc2)n1 [Example 4, 4-(4-methylpiperazin-1-ylaminomethyl)-N-[4-methyl-3-(4-(pyridin-3-yl)pyrimidin-2-yl)aminophenyl]benzamide methanesulfonate]
- Clinical conditions and autopsy (mice (ICR) [1]): neither abnormal response nor specific autopsy result was observed
- Mortality during the test period (mice (ICR) [1]): no mouse died
- LD50 at 14 days [2]: ≥ 2000 mg/kg
- IC50 [3]: 39.3 µg/mL
- IC50 [4]: 35 µg/mL
- IC50 [5]: 41.3 µg/mL
- Improved activity versus Imatinib mesylate [6]: 30 times
- IC50 [6]: 0.9 µg/mL

Structure (SMILES): CN1CCCN(Cc2ccc(C(=O)Nc3ccc(Nc4nccc(-c5cccnc5)n4)cc3)cc2)CC1.CS(=O)(=O)O [Example 10, 4-(4-methylhomopiperazin-1-ylmethyl)-N-[4-(4-(pyridin-3-yl)pyrimidin-2-yl)aminophenyl]benzamide methanesulfonate]
- Clinical conditions and autopsy (mice (ICR) [7]; 25 mg/kg i.v., 14 days): neither abnormal response nor specific autopsy
- Mice died (mice (ICR) [7]; 100 mg/kg i.v., within 10 minutes after the administration): 8 mice among 10
- Clinical conditions (mice (ICR) [7]; 50 and 75 mg/kg i.v.): weak trembling immediately after the administration
- Mortality (mice (ICR) [7]; 50 and 75 mg/kg i.v.): No mouse died
- Time to recovery from trembling (mice (ICR) [7]; 50 and 75 mg/kg i.v.): ≤ 1 h
- LD50 at 14 days [8]: 75 to 100 mg/kg
- Improved activity versus 5-Fu [3]: more than 18 times
- Improved activity versus Imatinib mesylate [3]: more than 8 times
- IC50 [3]: 5.5 µg/mL
- IC50 as fraction of that of Imatinib mesylate [4]: 1/5
- IC50 [4]: 8.99 µg/mL
- Percent Inhibition Ratio (I.R.) (sarcoma-180; 25 mg/kg i.v.): 36.1%
- Average tumor weight (Mean ± S.E.) (sarcoma-180; 25 mg/kg i.v.): 2.09 ± 1.4
- Percent Inhibition Ratio (I.R.) (sarcoma-180; 50 mg/kg i.v.): 63.0%
- Average tumor weight (Mean ± S.E.) (sarcoma-180; 50 mg/kg i.v.): 1.21 ± 1.2
- IC50 as fraction of that of Imatinib mesylate [5]: 1/2
- IC50 [5]: 5.51 µg/mL
- IC50 [6]: 7.3 µg/mL

From patent US20040248918A1, “N-phenyl-2-pyrimidine-amine derivatives and process for the preparation thereof” (IL YANG PHARM. CO., LTD., priority 2003, published 2004)
